Reference: patent US7524679B2, “Methods for culturing human lung mast cells and uses thereof” (Philadelphia, Health and Education Corporation, priority 2001, dated 2009)
Ends that are not written are not given here.

What was measured:
human lung mast cells [1] = assay: Histamine release assay in cultured human lung mast cells; type: cell-based; conditions: agent alone on cultured human lung mast cells
Method: Release of histamine in response to various stimuli was also examined.
Mast cells (10-50×10^3/tube) in PAGCM were preincubated at 37° C. then challenged with buffer or anti-FcεRI in doubling dilutions. In experiments examining the effects of beta-agonist and purinergic agonists, agents were added to cells at 37° C. for 15 minutes prior to FcεRI-mediated challenge. Twenty minutes following challenge, cells were rapidly pelleted and supernatants removed for histamine analysis. Histamine release was expressed as the net histamine released divided by the total histamine content ×100%. The total cellular histamine content was determined following cell lysis with 2% perchloric acid. […] Histamine measurements were performed using the automated spectrofluorometric method of Technicon (Tarrytown, N.Y.). […] All assays were run in duplicates.

[2] = tested on: cord-blood precursor-derived mast cells; conditions: cited from earlier work
[3] = tested on: freshly isolated human lung mast cells; conditions: cited from earlier work
[4] = tested on: human lung mast cell cultures; assay: Beta-receptor responsiveness: inhibition of histamine release; type: cell-based; conditions: cultured human lung mast cells, agents added 15 minutes prior to FcεRI-mediated challenge
Method: Beta-receptor responsiveness of human lung mast cell cultures of the present invention were also examined using the prototype agonist, isoproterenol, as well as with the long-acting beta agonist, salmeterol.
Mast cells (10-50×10^3/tube) in PAGCM were preincubated at 37° C. then challenged with buffer or anti-FcεRI in doubling dilutions. In experiments examining the effects of beta-agonist and purinergic agonists, agents were added to cells at 37° C. for 15 minutes prior to FcεRI-mediated challenge. Twenty minutes following challenge, cells were rapidly pelleted and supernatants removed for histamine analysis. Histamine release was expressed as the net histamine released divided by the total histamine content ×100%. The total cellular histamine content was determined following cell lysis with 2% perchloric acid. Spontaneous histamine release was always <2% of cellular histamine and generally <1%. Histamine measurements were performed using the automated spectrofluorometric method of Technicon (Tarrytown, N.Y.). Variations between replicates were consistently <5%. All assays were run in duplicates.

human lung mast cells [5] = assay: Proliferation assay using 3H-thymidine uptake; type: cell-based; conditions: for effect on proliferation when added to medium containing stem cell factor and interleukin-4: added on top of stem cell factor and interleukin-4
Method: Uptake of ^3H-thymidine was also monitored as a measure of survival and proliferation of human lung mast cell cultures of the present invention in the presence of different cytokine growth factors. In these experiments, ^3H-thymidine was added to human lung mast cell aliquots from three individuals at 5 through 7 weeks of culture. […] In the absence of stem cell factor, cells died within 3-5 days. Medium with stem cell factor alone produced a 60% increase in uptake. Medium to which stem cell factor and interleukin-4 were added produced a greater than 4-fold increase in proliferation versus stem cell factor alone.
At days 35-49, when cultures contained >95-99% mast cells, 2×10^4 mast cells in 50 μl culture medium were placed in triplicate in 96 well flat-bottomed plates and ^3H-thymidine (0.5 μCi/50 μl/well) added. After four days, cells were harvested on a glass fiber filter, washed ×3, and radioactive uptake was evaluated by a beta counter. Since the cultures contained virtually homogeneous populations, the counts reflected mast cell proliferation and not that of cellular contaminants. The results were expressed as the percent increase in radioactivity over mast cell cultured in medium alone.

[6] = tested on: mast cells from CD34 positive precursor stem cells; conditions: added to precursor-derived mast cell culture system; cited from earlier work

In the case of `CNc1ccc2oc(C[C@H]3O[C@@]4(CC[C@H]3C)O[C@H]([C@H](C)C(=O)c3ccc[nH]3)[C@H](C)C[C@H]4C)nc2c1C(=O)O` [A23187], the “histamine release, in words” value (human lung mast cells [1]) is reported as “in similar fashion to freshly isolated human lung mast cells”.

For `Nc1ncnc2c1ncn2[C@@H]1O[C@H](COP(=O)(O)OP(=O)(O)OP(=O)(O)O)[C@@H](O)[C@H]1O` [ATP], the “histamine release, in words” value (human lung mast cells [1]) was “neither ATP nor UTP alone triggered appreciable histamine release”.

In the case of `Nc1ncnc2c1ncn2[C@@H]1O[C@H](CO)[C@@H](O)[C@H]1O` [Adenosine, adenosine], the “effect on IgE-mediated histamine release” value [2] is listed as “inhibits IgE-mediated histamine release” and the “effect on anti-IgE-induced histamine release” value [3] is listed as “enhancement of anti-IgE-induced release”.

In the case of `O=c1ccn([C@@H]2O[C@H](COP(=O)(O)OP(=O)(O)OP(=O)(O)O)[C@@H](O)[C@H]2O)c(=O)[nH]1` [UTP, uridine 5′ triphosphate], the “histamine release, in words” value (human lung mast cells [1]) is reported as “neither ATP nor UTP alone triggered appreciable histamine release”.

`CC(C)NCC(O)c1ccc(O)c(O)c1` (stereo not shown) [isoproterenol] gave an IC50 [4] of 0.09 nM.

For `OCc1cc(C(O)CNCCCCCCOCCCCc2ccccc2)ccc1O` (stereo not shown) [salmeterol], the IC50 [4] was 0.1 nM.

For “interferon-y: cytokine added to culture medium containing stem cell factor and interleukin-4”, the “effect on proliferation when added to medium containing stem cell factor and interleukin-4” value (human lung mast cells [5]) was “marked reduction in proliferation”.

For interleukin-9: cytokine growth factor, the “effect on proliferation when added to medium containing stem cell factor and interleukin-4” value (human lung mast cells [5]) was “even greater enhancement in proliferation”.

For “stem cell factor: cytokine growth factor added to the culture medium”, the “increase in 3H-thymidine uptake” value (human lung mast cells [5]; medium with stem cell factor alone, over medium alone) was 60%.

For “substance P (RPKPQQFFGLM; ends and bridges not checked; UniProt P20366 58-68, looked up)”, the “histamine release, in words” value (human lung mast cells [1]) was “failed to provoke histamine release”.

B1: interleukin-4: cytokine growth factor; the cytokine that most defines allergic immunity (protein, UniProt P05112 25-153, looked up)
Interleukin-4: HKCDITLQEIIKTLNSLTEQKTLCTELTVTDIFAASKNTTEKETFCRAATVLRQFYSHHEKDTRCLGATAQQFHRHKQLIRFLKRLDRNLWGLAGLNSCPVKEANQSTLENFLERLKTIMREKYSKCSS
For B1, the “proliferation (3H-thymidine uptake)” value (human lung mast cells [5]; interleukin-4 added in the absence of stem cell factor, 5 through 7 weeks of culture) is given as “no proliferation in excess of that seen in culture medium alone” and the “programmed cell death (apoptosis)” value [6] is given as “induces programmed cell death (apoptosis)”.
